Measured values taken from patent US20260022143A1, “Cyclic Peptide Inhibitors of IL-23” (JANSSEN PHARMACEUTICA NV, priority 2022, published 2026).
Where two headings read alike, the source gives them in different places. Starred links: 1 amine or outer side, 2 acyl side, 3 side chain; linkers in the order of their positions; H or OH if unused. Positions of bridges follow the written chain, without caps; N, C: chain ends. Non-standard residues stand in square brackets, D forms with d. Residues, ends and D or L forms follow the SMILES beside them. Groups on a side chain read outwards from the residue. *: point of attachment. Me3N+(CH2)2O(CH2)2O(CH2)2CO = C[N+](C)(C)CCOCCOCCC(=O)*; Trp(7-Me) = Cc1cccc2c(C[C@H](N)C(=O)O)c[nH]c12; PEG9 = NCCOCCOCCOCCOCCOCCOCCOCCOCCOCCC(=O)O; Phe(4-CH2NH2) = NCc1ccc(C[C@H](N)C(=O)O)cc1; X71 = C[N+](C)(C)CC(F)(F)C(F)(F)C(F)(F)C*; γGlu = O=C(O)[C@H](CCC(=O)[*:2])N[*:1]; 2Nal = N[C@@H](Cc1ccc2ccccc2c1)C(=O)O; AEF = NCCOc1ccc(C[C@H](N)C(=O)O)cc1; NMe3Pal = CN[C@@H](Cc1cccnc1)C(=O)O; dNMeY = CN[C@H](Cc1ccc(O)cc1)C(=O)O; 3Pal = N[C@@H](Cc1cccnc1)C(=O)O; Lys(Me) = CNCCCC[C@H](N)C(=O)O; NMeK = CN[C@@H](CCCCN)C(=O)O; Pen = CC(C)(S)[C@H](N)C(=O)O; αMeK = C[C@](N)(CCCCN)C(=O)O; Lauroyl = CCCCCCCCCCCC(=O)*; Thp = NC1(C(=O)O)CCOCC1; X3 = C[N+](C)(C)CCCCC*; AEEA = NCCOCCOCC(=O)O; Sar = CNCC(=O)O

Biological target: T1, IL-23R (Homo sapiens, UniProt Q5VWK5)
T1 construct: host or cells: HEK293
T1 sequence (Q5VWK5 24-629): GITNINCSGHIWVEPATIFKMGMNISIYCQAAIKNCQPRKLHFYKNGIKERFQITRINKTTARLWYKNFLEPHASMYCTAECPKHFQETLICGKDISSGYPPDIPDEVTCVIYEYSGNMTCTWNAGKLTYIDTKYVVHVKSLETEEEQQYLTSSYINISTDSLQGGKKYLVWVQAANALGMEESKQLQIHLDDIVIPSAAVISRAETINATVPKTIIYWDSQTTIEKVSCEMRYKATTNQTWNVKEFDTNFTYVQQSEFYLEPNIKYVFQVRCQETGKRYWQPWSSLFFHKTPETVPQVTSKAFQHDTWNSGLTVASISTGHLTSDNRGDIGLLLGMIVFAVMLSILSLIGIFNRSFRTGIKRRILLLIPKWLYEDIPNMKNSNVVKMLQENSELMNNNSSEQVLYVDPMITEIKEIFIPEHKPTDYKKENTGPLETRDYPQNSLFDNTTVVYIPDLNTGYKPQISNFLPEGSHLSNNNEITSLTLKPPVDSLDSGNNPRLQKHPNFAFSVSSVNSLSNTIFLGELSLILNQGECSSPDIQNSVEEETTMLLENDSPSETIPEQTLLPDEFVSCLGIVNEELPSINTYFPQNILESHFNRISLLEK
Assay: IL23R Reporter Assay
Type: cell-based
Settings: HEK293 cells containing IL-23R, IL-12RP1 and STAT-inducible firefly luciferase reporter, 10 ng/mL IL-23 (EC90), 5 h at 37° C.

| Structure (SMILES) | IC50 (read-out: IL23R Reporter Assay) [nM] | IC50 (IL23R Reporter Assay (micromolar)) [nM] |
| --- | --- | --- |
| CC(=O)N[C@@H]1C(=O)N[C@@H](CC(=O)N(C)C)C(=O)N[C@@H]([C@@H](C)O)C(=O)N[C@@H](Cc2c[nH]c3c(C)cccc23)C(=O)N[C@@H](COCCOCC[N+](C)(C)C)C(=O)N[C@H](C(=O)N[C@@H](Cc2ccc(OCCOCCOCC[N+](C)(C)C)cc2)C(=O)N[C@@H](Cc2ccc3ccccc3c2)C(=O)NC2(C(=O)N[C@@H](CCCCN(C)C(C)=O)C(=O)N[C@@H](CC(N)=O)C(=O)N[C@@H](Cc3cccnc3)C(=O)N(C)CC(=O)N(C)C)CCOCC2)C(C)(C)SSC1(C)C (relative stereo) [compound 267, MeCO-Pen(3)-N(N(Me)2)-T-7MeW-APEG2Ser(S*)-Pen(3)-APEG3F-2Nal-THP-K(NMeAc)-N-3Pya-Sar-CON(Me)2] | 4.2 |  |
| CC(=O)NCCCC[C@H](NC(=O)[C@](C)(CCCCN)NC(=O)[C@H](Cc1ccc2ccccc2c1)NC(=O)[C@H](Cc1ccc(OCCN)cc1)NC(=O)[C@H]1NC(=O)[C@H](Cc2ccc(CNC(C)=O)cc2)NC(=O)[C@H](Cc2c[nH]c3c(C)cccc23)NC(=O)[C@H]([C@@H](C)O)NC(=O)[C@H](CC(N)=O)NC(=O)[C@@H](NC(C)=O)C(C)(C)SSC1(C)C)C(=O)N[C@@H](CC(N)=O)C(=O)N[C@H](CCCCN)C(=O)N(C)[C@H](Cc1ccc(O)cc1)C(N)=O [compound 23, MeCO-Pen(3)-N-T-7MeW-Paf(Ac)-Pen(3)-AEF-2Nal-aMeK-K(Ac)-N-k-NMeDTyr-CONH2] (Ac-[Pen]NT[Trp(7-Me)][Phe(4-CH2NH2)](Ac)[Pen][AEF][2Nal][αMeK]K(Ac)N[dK][dNMeY]-NH2; disulfide 1-6) | 150 |  |
| CC(=O)NCCCC[C@@H]1NC(=O)[C@H](Cc2c[nH]c3c(C)cccc23)NC(=O)[C@H]([C@@H](C)O)NC(=O)[C@H](CC(N)=O)NC(=O)[C@@H](NC(=O)[C@@H](CCCNC(=N)N)NC(C)=O)C(C)(C)SSC(C)(C)[C@@H](C(=O)N[C@@H](Cc2ccc(OCCN)cc2)C(=O)N[C@@H](Cc2ccc3ccccc3c2)C(=O)NC2(C(=O)N[C@@H](CCC(=O)O)C(=O)N[C@@H](CC(N)=O)C(=O)N(C)[C@@H](Cc3cccnc3)C(N)=O)CCOCC2)NC1=O [compound 36] (Ac-[dR][Pen]NT[Trp(7-Me)]K(Ac)[Pen][AEF][2Nal][Thp]EN[NMe3Pal]-NH2; disulfide 2-7 (inferred)) | 940 |  |
| CC(=O)NCCCC[C@@H]1NC(=O)[C@H](Cc2c[nH]c3c(C)cccc23)NC(=O)[C@H]([C@@H](C)O)NC(=O)[C@H](CC(N)=O)NC(=O)[C@@H](NC(=O)[C@@H](CCCCNC(=O)CCOCCOCCOCCOCCOCCOCCOCCOCCOCCNC(C)=O)NC(C)=O)C(C)(C)SSC(C)(C)[C@@H](C(=O)N[C@@H](Cc2ccc(OCCN)cc2)C(=O)N[C@@H](Cc2ccc3ccccc3c2)C(=O)NC2(C(=O)N[C@@H](CCCCNC(C)=O)C(=O)N[C@@H](CC(N)=O)C(=O)N[C@@H](Cc3cccnc3)C(=O)N(C)CC(N)=O)CCOCC2)NC1=O [compound 44] (Ac-[dK]([PEG9-Ac])[Pen]NT[Trp(7-Me)]K(Ac)[Pen][AEF][2Nal][Thp]K(Ac)N[3Pal][Sar]-NH2; disulfide 2-7 (inferred)) | 6.8 |  |
| CC(=O)NCCCC[C@@H]1NC(=O)[C@H](Cc2c[nH]c3c(C)cccc23)NC(=O)[C@H]([C@@H](C)O)NC(=O)[C@H](CC(N)=O)NC(=O)[C@@H](NC(C)=O)C(C)(C)SSC(C)(C)[C@@H](C(=O)N[C@@H](Cc2ccc(OCCN)cc2)C(=O)N[C@@H](Cc2ccc3ccccc3c2)C(=O)NC2(C(=O)N[C@@H](CCC(=O)O)C(=O)N[C@@H](CC(N)=O)C(=O)N[C@@H](Cc3cccnc3)C(=O)N(C)CC(=O)N(C)C)CCOCC2)NC1=O [compound 276] (Ac-[Pen]NT[Trp(7-Me)]K(Ac)[Pen][AEF][2Nal][Thp]EN[3Pal][Sar]-NMe2; disulfide 1-6 (inferred)) | 55 |  |
| CC(=O)N(C)CCCC[C@@H]1NC(=O)[C@H](Cc2c[nH]c3c(C)cccc23)NC(=O)[C@H]([C@@H](C)O)NC(=O)[C@H](CC(=O)N(C)C)NC(=O)[C@@H](NC(=O)CCOCCOCC[N+](C)(C)C)C(C)(C)SSC(C)(C)[C@@H](C(=O)N[C@@H](Cn2cc(CC[N+](C)(C)C)nn2)C(=O)N[C@@H](Cc2ccc3ccccc3c2)C(=O)NC2(C(=O)N[C@@H](CCCCN(C)C(C)=O)C(=O)N[C@@H](CC(N)=O)C(=O)N[C@@H](Cc3cccnc3)C(=O)N(C)CC(=O)N(C)C)CCOCC2)NC1=O [compound 287, cPEG3aCO-Pen(3)-N(N(Me)2)-T-7MeW-K(NMeAc)-Pen(3)-Tzl(Ch)-2Nal-THP-K(NMeAc)-N-3Pya-Sar-CON(Me)2] | 24 |  |
| CCCCCCCCCCCC(=O)N[C@@H](CCC(=O)NCCOCCOCC(=O)NCCOCCOCC(=O)NCCCC[C@@H](C(N)=O)N(C)C(=O)[C@H](Cc1cccnc1)NC(=O)[C@H](CC(N)=O)NC(=O)[C@H](CCCCN(C)C(C)=O)NC(=O)C1(NC(=O)[C@H](Cc2ccc3ccccc3c2)NC(=O)[C@H](Cc2ccc(OCCCCC[N+](C)(C)C)cc2)NC(=O)[C@H]2NC(=O)[C@H](CCCCNC(C)=O)NC(=O)[C@H](Cc3c[nH]c4c(C)cccc34)NC(=O)[C@H]([C@@H](C)O)NC(=O)[C@H](CC(=O)N(C)C)NC(=O)[C@@H](NC(=O)CCOCCOCC[N+](C)(C)C)C(C)(C)SSC2(C)C)CCOCC1)C(=O)O [compound 313, cPEG3aCO-Pen(3)-N(N(Me)2)-T-7MeW-K(Ac)-Pen(3)-TMAPF-2Nal-THP-K(NMeaC)-N-3Pya-NMeK(PEG2PEG2gEC12)-CONH2] ({Me3N+(CH2)2O(CH2)2O(CH2)2CO}-[Pen]D(NMe2)T[Trp(7-Me)]K(Ac)[Pen]Y(X3)[2Nal][Thp][Lys(Me)](Ac)N[3Pal][NMeK]([AEEA-AEEA-γGlu-Lauroyl])-NH2; disulfide 1-6) | 4.2 |  |
| CCCCCCCCCCCC(=O)N[C@@H](CCC(=O)NCCOCCOCC(=O)NCCOCCOCC(=O)NCCCC[C@@H](C(N)=O)N(C)C(=O)[C@H](Cc1cccnc1)NC(=O)[C@H](CC(N)=O)NC(=O)[C@H](CCCCN(C)C(C)=O)NC(=O)C1(NC(=O)[C@H](Cc2ccc3ccccc3c2)NC(=O)[C@H](Cc2ccc(OCCCCC[N+](C)(C)C)cc2)NC(=O)[C@H]2NC(=O)[C@H](CCCCN(C)C(C)=O)NC(=O)[C@H](Cc3c[nH]c4c(C)cccc34)NC(=O)[C@H]([C@@H](C)O)NC(=O)[C@H](CC(=O)N(C)C)NC(=O)[C@@H](NC(=O)CCOCCOCC[N+](C)(C)C)C(C)(C)SSC2(C)C)CCOCC1)C(=O)O [compound 314, cPEG3aCO-Pen(3)-N(N(Me)2)-T-7MeW-K(NMeAC)-Pen(3)-TMAPF-2Nal-THP-K(NMeaC)-N-3Pya-NMeK(PEG2PEG2gEC12)-CONH2] ({Me3N+(CH2)2O(CH2)2O(CH2)2CO}-[Pen]D(NMe2)T[Trp(7-Me)][Lys(Me)](Ac)[Pen]Y(X3)[2Nal][Thp][Lys(Me)](Ac)N[3Pal][NMeK]([AEEA-AEEA-γGlu-Lauroyl])-NH2; disulfide 1-6) | 7 |  |
| CC(=O)N(C)CCCC[C@@H]1NC(=O)[C@H](Cc2c[nH]c3c(C)cccc23)NC(=O)[C@H]([C@@H](C)O)NC(=O)[C@H](CC(=O)N(C)C)NC(=O)[C@@H](NC(=O)CCOCCOCC[N+](C)(C)C)C(C)(C)SSC(C)(C)[C@@H](C(=O)N[C@@H](Cc2ccc(OCC(F)(F)C(F)(F)C(F)(F)C[N+](C)(C)C)cc2)C(=O)N[C@@H](Cc2ccc3ccccc3c2)C(=O)NC2(C(=O)N[C@@H](CCCCN(C)C(C)=O)C(=O)N[C@@H](CC(N)=O)C(=O)N[C@@H](Cc3cccnc3)C(=O)N(C)CC(=O)N(C)C)CCOCC2)NC1=O [compound 338, cPEG3aCO-Pen(3)-N(N(Me)2)-T-7MeW-K(NMeAc)-Pen(3)-hFTMAPF-2Nal-THP-K(NMeAc)-N-3Pya-Sar-CON(Me)2] ({Me3N+(CH2)2O(CH2)2O(CH2)2CO}-[Pen]D(NMe2)T[Trp(7-Me)][Lys(Me)](Ac)[Pen]Y(X71)[2Nal][Thp][Lys(Me)](Ac)N[3Pal][Sar]-NMe2; disulfide 1-6) |  | 1.6 |
| CCCCCCCCCCCC(=O)N[C@@H](CCC(=O)NCCOCCOCC(=O)NCCOCCOCC(=O)NCCCC[C@H](NC(=O)C1(NC(=O)[C@H](Cc2ccc3ccccc3c2)NC(=O)[C@H](Cc2ccc(OCCCCC[N+](C)(C)C)cc2)NC(=O)[C@H]2NC(=O)[C@H](CCCCNC(C)=O)NC(=O)[C@H](Cc3c[nH]c4c(C)cccc34)NC(=O)[C@H]([C@@H](C)O)NC(=O)[C@H](CC(=O)N(C)C)NC(=O)[C@@H](NC(=O)CCOCCOCC[N+](C)(C)C)C(C)(C)SSC2(C)C)CCOCC1)C(=O)N[C@@H](CC(N)=O)C(=O)N[C@@H](Cc1cccnc1)C(=O)N(C)[C@@H](CCCCNC(=O)COCCOCCNC(=O)COCCOCCNC(=O)CC[C@H](NC(=O)CCCCCCCCCCC)C(=O)O)C(N)=O)C(=O)O [compound 353, cPEG3aCO-Pen(3)-N(N(Me)2)-T-7MeW-K(Ac)-Pen(3)-TMAPF-2Nal-THP-K(PEG2PEG2gEC12)-N-3Pya-NMeK(PEG2PEG2gEC12)-CONH2] ({Me3N+(CH2)2O(CH2)2O(CH2)2CO}-[Pen]D(NMe2)T[Trp(7-Me)]K(Ac)[Pen]Y(X3)[2Nal][Thp]K([AEEA-AEEA-γGlu-Lauroyl])N[3Pal][NMeK]([AEEA-AEEA-γGlu-Lauroyl])-NH2; disulfide 1-6) | 140 |  |
